What all share (assay): Kinase panel profiling at 1 µmol/L (mobility shift assay, Carna)
Assay type in all cases: biochemical
What all share (details): 1 µmol/L of BTK inhibitor

One experiment addresses T1, EPHB4 (Homo sapiens, UniProt P54760).
T1 construct: purchased Carna Biosciences
T1 sequence (P54760 16-987): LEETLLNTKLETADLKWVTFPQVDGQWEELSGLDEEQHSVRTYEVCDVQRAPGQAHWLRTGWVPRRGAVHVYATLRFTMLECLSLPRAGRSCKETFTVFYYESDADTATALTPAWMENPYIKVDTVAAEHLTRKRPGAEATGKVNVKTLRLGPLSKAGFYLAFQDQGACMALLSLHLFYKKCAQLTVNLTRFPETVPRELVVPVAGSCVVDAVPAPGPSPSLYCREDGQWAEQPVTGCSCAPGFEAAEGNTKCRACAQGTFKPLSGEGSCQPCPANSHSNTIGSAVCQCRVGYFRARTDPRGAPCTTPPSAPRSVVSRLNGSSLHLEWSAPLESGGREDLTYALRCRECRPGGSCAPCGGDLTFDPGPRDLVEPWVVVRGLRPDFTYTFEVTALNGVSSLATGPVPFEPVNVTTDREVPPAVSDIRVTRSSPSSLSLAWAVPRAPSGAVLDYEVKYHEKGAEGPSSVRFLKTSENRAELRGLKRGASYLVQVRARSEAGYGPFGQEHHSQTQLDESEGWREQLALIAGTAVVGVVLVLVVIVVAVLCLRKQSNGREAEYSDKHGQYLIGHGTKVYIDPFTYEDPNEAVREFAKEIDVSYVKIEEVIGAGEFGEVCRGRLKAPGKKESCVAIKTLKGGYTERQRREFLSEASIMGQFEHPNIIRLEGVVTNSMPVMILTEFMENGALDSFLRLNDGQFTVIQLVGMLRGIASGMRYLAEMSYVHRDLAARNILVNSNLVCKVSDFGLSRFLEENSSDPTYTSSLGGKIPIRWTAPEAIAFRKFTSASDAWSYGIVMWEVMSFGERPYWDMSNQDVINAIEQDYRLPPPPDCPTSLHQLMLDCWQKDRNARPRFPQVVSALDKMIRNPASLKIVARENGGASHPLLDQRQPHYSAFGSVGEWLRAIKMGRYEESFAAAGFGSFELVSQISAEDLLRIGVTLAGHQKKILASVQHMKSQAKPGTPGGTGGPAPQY

A further experiment has as its target T2, SRM (Homo sapiens, UniProt Q9H3Y6).
T2 construct: purchased Carna Biosciences

Another experiment has as its target T3, ZAP70 (Homo sapiens, UniProt P43403).
T3 construct: purchased Carna Biosciences
T3 sequence (P43403 1-619): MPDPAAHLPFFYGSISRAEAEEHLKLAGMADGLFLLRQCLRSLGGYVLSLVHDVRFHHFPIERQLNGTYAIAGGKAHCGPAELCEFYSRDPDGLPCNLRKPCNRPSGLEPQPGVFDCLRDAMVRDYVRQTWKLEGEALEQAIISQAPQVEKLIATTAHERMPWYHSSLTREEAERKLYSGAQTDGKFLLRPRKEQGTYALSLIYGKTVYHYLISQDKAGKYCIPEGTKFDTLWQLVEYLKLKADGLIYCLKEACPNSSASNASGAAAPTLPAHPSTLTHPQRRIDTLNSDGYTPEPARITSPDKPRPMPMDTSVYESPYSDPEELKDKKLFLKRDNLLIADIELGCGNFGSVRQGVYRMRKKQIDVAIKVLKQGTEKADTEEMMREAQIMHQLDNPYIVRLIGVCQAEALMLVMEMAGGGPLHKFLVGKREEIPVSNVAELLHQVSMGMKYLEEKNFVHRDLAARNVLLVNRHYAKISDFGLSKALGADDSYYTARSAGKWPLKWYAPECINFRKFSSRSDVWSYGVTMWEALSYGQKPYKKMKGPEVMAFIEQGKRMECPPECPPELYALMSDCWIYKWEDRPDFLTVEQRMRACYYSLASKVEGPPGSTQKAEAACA

The next experiment concerns the target T4, CK1γ3 (Homo sapiens, UniProt Q9Y6M4).
T4 construct: purchased Carna Biosciences

Another experiment concerns the target T5, HIPK2 (Homo sapiens, UniProt Q9H2X6).
T5 construct: purchased Carna Biosciences

The next experiment deals with T6, MELK (Homo sapiens, UniProt Q14680).
T6 construct: purchased Carna Biosciences
T6 sequence (Q14680 whole entry): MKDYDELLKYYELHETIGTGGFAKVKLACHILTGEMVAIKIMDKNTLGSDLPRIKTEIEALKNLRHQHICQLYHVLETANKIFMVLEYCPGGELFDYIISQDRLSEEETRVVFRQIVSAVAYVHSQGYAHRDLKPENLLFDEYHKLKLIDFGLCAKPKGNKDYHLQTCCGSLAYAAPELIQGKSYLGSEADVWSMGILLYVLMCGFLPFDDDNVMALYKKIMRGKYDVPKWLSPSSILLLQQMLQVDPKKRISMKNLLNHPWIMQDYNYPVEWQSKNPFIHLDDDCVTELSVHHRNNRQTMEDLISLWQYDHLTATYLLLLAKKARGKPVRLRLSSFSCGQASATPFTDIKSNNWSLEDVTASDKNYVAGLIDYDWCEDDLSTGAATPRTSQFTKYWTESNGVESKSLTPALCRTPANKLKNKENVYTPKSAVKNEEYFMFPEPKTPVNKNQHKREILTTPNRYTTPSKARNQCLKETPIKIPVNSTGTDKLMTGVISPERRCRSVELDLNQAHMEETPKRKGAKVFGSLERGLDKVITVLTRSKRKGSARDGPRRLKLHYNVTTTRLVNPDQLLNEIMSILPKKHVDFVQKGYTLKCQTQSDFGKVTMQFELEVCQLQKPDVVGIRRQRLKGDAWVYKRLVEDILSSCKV

The next experiment deals with T7, NuaK1 (Homo sapiens, UniProt O60285).
T7 construct: purchased Carna Biosciences
T7 sequence (O60285 1-661): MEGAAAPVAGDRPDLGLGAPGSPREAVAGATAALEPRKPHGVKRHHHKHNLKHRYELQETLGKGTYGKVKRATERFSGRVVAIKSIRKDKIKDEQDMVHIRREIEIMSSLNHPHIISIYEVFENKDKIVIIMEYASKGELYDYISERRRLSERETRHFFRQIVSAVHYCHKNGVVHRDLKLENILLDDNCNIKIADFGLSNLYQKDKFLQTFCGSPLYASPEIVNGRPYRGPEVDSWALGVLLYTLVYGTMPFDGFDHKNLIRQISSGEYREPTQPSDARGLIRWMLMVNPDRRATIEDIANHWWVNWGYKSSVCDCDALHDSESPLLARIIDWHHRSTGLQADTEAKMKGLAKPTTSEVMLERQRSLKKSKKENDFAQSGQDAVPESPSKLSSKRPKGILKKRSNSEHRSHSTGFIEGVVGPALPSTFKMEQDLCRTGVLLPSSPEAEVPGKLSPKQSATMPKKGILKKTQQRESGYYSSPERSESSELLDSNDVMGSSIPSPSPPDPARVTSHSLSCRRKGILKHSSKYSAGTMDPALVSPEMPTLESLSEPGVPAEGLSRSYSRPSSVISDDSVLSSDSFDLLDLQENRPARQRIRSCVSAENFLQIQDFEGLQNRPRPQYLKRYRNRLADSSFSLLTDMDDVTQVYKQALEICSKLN

Another experiment addresses T8, PKR (Homo sapiens, UniProt P19525).
T8 construct: purchased Carna Biosciences

The next experiment addresses T9, PRKX (Homo sapiens, UniProt P51817).
T9 construct: purchased Carna Biosciences
T9 sequence (P51817 1-358): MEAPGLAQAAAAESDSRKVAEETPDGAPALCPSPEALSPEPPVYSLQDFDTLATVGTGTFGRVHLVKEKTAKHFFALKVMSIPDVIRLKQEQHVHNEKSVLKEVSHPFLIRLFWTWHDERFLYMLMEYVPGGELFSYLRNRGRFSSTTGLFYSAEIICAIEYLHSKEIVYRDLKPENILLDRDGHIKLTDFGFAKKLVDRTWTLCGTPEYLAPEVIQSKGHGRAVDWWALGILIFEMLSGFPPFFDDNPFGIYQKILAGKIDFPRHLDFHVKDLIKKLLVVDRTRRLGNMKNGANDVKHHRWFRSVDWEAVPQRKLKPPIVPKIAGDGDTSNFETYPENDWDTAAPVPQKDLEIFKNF

T8 sequence (P19525 whole entry): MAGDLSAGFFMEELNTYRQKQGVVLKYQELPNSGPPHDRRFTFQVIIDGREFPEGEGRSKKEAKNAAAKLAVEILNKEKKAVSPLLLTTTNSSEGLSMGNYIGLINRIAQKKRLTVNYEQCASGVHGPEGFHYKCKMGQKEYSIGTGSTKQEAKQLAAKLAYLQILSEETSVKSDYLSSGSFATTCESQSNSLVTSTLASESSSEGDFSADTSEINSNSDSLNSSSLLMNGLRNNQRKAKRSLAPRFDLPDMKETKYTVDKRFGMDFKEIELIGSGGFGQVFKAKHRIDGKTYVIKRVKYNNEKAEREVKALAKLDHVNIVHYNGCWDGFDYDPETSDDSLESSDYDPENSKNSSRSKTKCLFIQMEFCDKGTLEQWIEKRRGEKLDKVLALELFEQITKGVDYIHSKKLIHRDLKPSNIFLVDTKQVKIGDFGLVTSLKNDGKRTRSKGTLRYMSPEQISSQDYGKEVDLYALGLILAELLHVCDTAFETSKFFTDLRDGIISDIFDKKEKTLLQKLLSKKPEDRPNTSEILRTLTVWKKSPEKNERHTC
T5 sequence (Q9H2X6 whole entry): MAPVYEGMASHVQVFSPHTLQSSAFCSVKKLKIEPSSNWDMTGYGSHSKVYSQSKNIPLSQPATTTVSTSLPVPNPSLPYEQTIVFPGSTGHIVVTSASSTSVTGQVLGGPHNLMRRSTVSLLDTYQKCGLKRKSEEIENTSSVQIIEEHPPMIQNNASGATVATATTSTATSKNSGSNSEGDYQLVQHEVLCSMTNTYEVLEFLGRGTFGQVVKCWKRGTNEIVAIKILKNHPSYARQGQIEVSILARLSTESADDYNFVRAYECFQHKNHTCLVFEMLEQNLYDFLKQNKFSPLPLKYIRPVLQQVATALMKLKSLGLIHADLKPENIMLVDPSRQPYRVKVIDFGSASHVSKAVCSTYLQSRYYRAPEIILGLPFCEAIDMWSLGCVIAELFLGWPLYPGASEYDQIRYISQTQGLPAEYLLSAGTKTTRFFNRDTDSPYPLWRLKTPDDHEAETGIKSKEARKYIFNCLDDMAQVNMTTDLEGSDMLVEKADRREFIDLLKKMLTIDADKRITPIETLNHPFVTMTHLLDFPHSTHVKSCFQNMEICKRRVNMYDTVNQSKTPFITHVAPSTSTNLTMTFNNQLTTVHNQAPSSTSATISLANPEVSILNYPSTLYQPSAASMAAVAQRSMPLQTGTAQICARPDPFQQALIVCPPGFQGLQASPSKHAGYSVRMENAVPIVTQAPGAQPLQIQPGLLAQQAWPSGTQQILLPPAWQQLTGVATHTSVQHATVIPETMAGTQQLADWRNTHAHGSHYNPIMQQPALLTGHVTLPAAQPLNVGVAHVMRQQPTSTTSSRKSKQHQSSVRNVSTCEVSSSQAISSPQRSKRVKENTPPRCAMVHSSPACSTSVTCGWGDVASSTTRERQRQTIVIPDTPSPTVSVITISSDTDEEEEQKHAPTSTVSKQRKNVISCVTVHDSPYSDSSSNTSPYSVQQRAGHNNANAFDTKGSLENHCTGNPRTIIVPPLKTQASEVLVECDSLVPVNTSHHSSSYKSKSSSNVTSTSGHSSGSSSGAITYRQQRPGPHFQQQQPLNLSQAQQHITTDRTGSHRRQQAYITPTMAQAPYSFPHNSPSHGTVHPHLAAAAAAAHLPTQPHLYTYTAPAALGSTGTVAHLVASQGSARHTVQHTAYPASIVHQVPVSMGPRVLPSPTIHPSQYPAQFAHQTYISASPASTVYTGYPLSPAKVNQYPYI
T2 sequence (Q9H3Y6 whole entry): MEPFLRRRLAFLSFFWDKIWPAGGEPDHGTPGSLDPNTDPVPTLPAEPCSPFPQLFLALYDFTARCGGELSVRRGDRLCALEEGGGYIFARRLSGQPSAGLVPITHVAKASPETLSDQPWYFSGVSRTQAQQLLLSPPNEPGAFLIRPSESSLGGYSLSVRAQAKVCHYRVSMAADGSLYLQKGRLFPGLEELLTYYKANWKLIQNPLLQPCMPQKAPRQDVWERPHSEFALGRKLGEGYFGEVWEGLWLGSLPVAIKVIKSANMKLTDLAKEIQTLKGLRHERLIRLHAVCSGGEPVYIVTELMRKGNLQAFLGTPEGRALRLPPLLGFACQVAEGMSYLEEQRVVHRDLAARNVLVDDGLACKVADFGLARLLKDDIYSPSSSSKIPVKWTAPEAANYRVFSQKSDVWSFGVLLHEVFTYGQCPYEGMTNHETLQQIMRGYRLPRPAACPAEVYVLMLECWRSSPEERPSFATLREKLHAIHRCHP
T4 sequence (Q9Y6M4 whole entry): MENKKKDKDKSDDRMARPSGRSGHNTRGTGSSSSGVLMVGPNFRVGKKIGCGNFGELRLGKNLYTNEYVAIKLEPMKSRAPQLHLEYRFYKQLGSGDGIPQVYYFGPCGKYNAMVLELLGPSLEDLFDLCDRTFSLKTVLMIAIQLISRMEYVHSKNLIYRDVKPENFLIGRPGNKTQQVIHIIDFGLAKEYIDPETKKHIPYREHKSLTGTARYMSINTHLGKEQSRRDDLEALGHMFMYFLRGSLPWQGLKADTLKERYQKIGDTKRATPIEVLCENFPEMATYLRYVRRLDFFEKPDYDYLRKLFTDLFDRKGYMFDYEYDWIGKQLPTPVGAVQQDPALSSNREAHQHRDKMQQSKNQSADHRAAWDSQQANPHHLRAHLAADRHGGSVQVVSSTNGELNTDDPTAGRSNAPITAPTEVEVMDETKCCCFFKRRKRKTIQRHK

Turning to `CC#CC(=O)N1CCC[C@H]1c1nc(-c2ccc(C(=O)Nc3ccccn3)cc2)c2c(N)nccn12` [acalabrutinib], the “Percentage inhibition of kinase enzyme activity” value (shortened to “Percentage inhibition”) is recorded as -1.45% on EPHB4; 39.49% on SRM; -1.53% at ZAP70; -14.72% on CK1γ3; -11.44% at HIPK2; -0.54% at MELK. In addition, the “Percentage inhibition” value at NuaK1 is reported as -3.51%; on PKR, 7.19%; on PRKX it was -4.59%.

In the case of `COc1ccc(F)cc1C(=O)NCc1ccc(-c2nn([C@@H](C)C(F)(F)F)c(N)c2C(N)=O)cc1` [pirtobrutinib], the “Percentage inhibition” value on EPHB4 is 4.51%; on SRM it was 18.61%; at ZAP70, -3.75%; at CK1γ3, -0.93%; at HIPK2, 0.19%; on MELK it was -5.13%. Also, the “Percentage inhibition” value at NuaK1 was 4.02%; on PKR, 7.39%; on PRKX it was 9.51%.

As to `C=CC(=O)N1CCC[C@@H](n2nc(-c3ccc(Oc4ccccc4)cc3)c3c(N)ncnc32)C1` [ibrutinib], the “Percentage inhibition” value is 26.52% on EPHB4; 102.20% on SRM; -4.51% on ZAP70; 3.83% on CK1γ3; 2.01% at HIPK2; 8.08% at MELK. Further, the “Percentage inhibition” value on NuaK1 is recorded as 6.70%; at PKR, 5.63%; on PRKX, 0.66%.

On to `O=C(c1ccc(Oc2ccccc2)cc1Cl)c1c[nH]c2ncnc(N[C@@H]3CC[C@@H](CO)OC3)c12` [nemtabrutinib], for which the “Percentage inhibition” value at EPHB4 is 37.75%; at SRM it was 102.16%; on ZAP70, 8.61%; on CK1γ3, 3.75%; on HIPK2 it was 3.26%; on MELK, 81.25%. The “Percentage inhibition” value at NuaK1 worked out at 3.95%; on PKR, 29.57%; on PRKX, 1.65%.

Regarding `C=CC(=O)N1CCC([C@@H]2CCNc3c(C(N)=O)c(-c4ccc(Oc5ccccc5)cc4)nn32)CC1` [zanubrutinib], the “Percentage inhibition” value is given as 12.92% on EPHB4 and 57.79% on SRM.

Source of the values: paper PMC12586182 (Frontiers in Oncology, 2025).
